Article PMC9873307, “Methylone, a rapid acting entactogen with robust anxiolytic and antidepressant-like activity” (Frontiers in Psychiatry, 2023)

Key:
[1] = tested on: male Sprague Dawley rats; experiment: Forced swim test (FST); format: in vivo, rat; conditions: for percent time spent immobile: 30 min before 5-min test
Protocol: (§1) Male Sprague Dawley rats (Charles River Laboratories) weighing 180–200 g on arrival, were used for all behavioral studies, which took place at Melior Discovery (Exton, PA, USA). Rats acclimated to their home cages for at least 1 week before testing, were maintained in a controlled environment on a 12 h light/dark cycle, with no more than 2 rats per cage. Animals received ad libitum access to standard rodent chow and water and were assigned randomly to treatment groups. All animal use and procedures were in accordance with established protocols approved by the Melior IACUC committee, Melior Standard Operation Procedures (SOP), and Transcend Therapeutics. Distinct cohorts of animals were used for each experiment/Figure presented in this manuscript.
(§2) Methylone HCl (0.5–30 mg/kg; Cayman Chemical) or Fluoxetine HCl (10 mg/kg; Sigma-Aldrich) were formulated in sterile 0.9% saline vehicle before IP administration. Control animals received saline vehicle. Methylone or saline was administered 30 min prior to FST or OFT testing sessions. Fluoxetine or saline were administered 23.5, 5, and 1 h prior to testing, consistent with previous studies ([19]).
All studies were performed and scored by an experimenter blind to treatment group according to standard protocols at Melior Discovery (Exton, PA, USA) and based on published “modified FST” procedures ([20]). Briefly, rats were placed in a circular plexiglass container (29.2 cm diameter, 49.5 cm height) filled with water to a depth of 30 cm so rats could not support themselves by touching the bottom of the tank. Water was maintained at 22–25°C and was changed for every animal. Day 1 (Training) consisted of a 15 min acclimation trial, and Day 2 (Testing, 24 h later) consisted of the 5 min test. A time sampling procedure was employed where animals were observed every 5 s for the duration of the test session (60 counts or 5 min) and scored for immobility (defined as the failure to struggle), swimming (defined as a circular movement around the tank), or climbing (defined as an upward escape behavior). Data are expressed as the percent time spent immobile, swimming, or climbing for the 5-min testing session (e.g., the number of immobility counts divided by 60). Therefore, to extrapolate these values to time spent immobile in minutes, one can multiply the percent time immobile by 5 min.

[2] = tested on: male Sprague Dawley rats; experiment: Open field test (OFT): locomotor activity and time in center; format: in vivo, rat
Protocol: as §1, §2
All studies were performed by an experimenter blind to treatment group and according to standard protocols at Melior Discovery (Exton, PA, USA). The OFT was used to assess both locomotor activity and anxiety-like behavior. The OFT was run in a standard rat OFA chamber (17 ^^′′ × 17 ^^′′ × 12 ^^′′ , Med Associates). After habituation to the testing room and drug injection, rats were assessed for 30 min in the OFT using an automated activity monitoring system (MedAssociates). Locomotor activity was measured by recording the total ambulatory distance traveled (cm), reported in 5-min bins for the duration of the 30 min testing period. The center of the open field was defined as a 12 ^^′′ square, a predefined center setting on the MedAssociates analysis software. Time spent in the center of the open field, an anxiolytic measure, was also recorded for the 30 min testing period.

[3] = tested on: brain serotonin; conditions: repeated doses; cited from earlier work

## CNC(C)C(=O)c1ccc2c(c1)OCO2 (centres unmarked) [methylone, 3,4-methylenedioxy-N-methylcathinone]
[1]; after a single dose of methylone
  reduced immobility relative to Vehicle controls: 78–98%
[1]; after a single dose of methylone 15 mg/kg IP
  duration of antidepressant-like effect: at least 72 h
[1]; methylone 5 mg/kg IP, Vehicle 63.9 ± 2.7%
  percent time spent immobile: 31.9 ± 4.7%
[1]; methylone 15 mg/kg IP once, 30 min, 24, 72 h, Figure 3D
  climbing vs vehicle on retest: small but significant effect of methylone on climbing was observed at 30 min only
[1]; methylone 15 mg/kg IP once, 30 min, 24, 72 h, Figure 3F
  swimming vs vehicle on retest: significantly increasing swimming at all three time points tested
[1]; methylone 15 mg/kg IP once, tested 30 min, 24 and 72 h, Figure 3B
  immobility vs vehicle on retest: reducing immobility significantly at all-time points
[1]; methylone 0.5–30 mg/kg IP dose response, 30 min before, Figure 1D
  climbing behavior vs controls: increased only by low to mid doses of methylone (5–10 mg/kg)
[1]; methylone 10–15 mg/kg IP, Vehicle 63.9 ± 2.7%
  percent time spent immobile: 4.2 ± 1.3%
[1]; methylone 20–30 mg/kg, not statistically significant
  immobility at highest doses: trend toward less reduction in immobility
[1]; methylone alone 5 mg/kg IP 30 min before, Figure 6C
  climbing compared to vehicle: significantly increased climbing
[1]; methylone alone, 15 mg/kg, Figure 1B, Vehicle 63.9 ± 2.7%
  % time immobile: 4.2 ± 1.8%
[1]; methylone dose response
  dose of first significant effect on immobility: 5 mg/kg
  dose of maximal effect on immobility: 10 mg/kg
[1]; methylone mid to high doses, 30 min before, Figure 1F
  swimming behavior vs controls: significantly increased
[1]; methylone single low dose 5 mg/kg IP, 30 min before
  change in immobility vs vehicle control: ~50%
[1]; single dose of methylone
  onset of effect: ≤ 30 min
[1]; single dose of methylone (5–30 mg/kg) 30 min prior to testing
  reduction of immobility vs. controls: ~95%
[2]; methylone 0.5–10 mg/kg IP, 30 min before, Figure 4C
  distance traveled, first 5 min: did not affect locomotor activity
[2]; methylone 0.5–30 mg/kg, retest 24 h post-dose, all groups, Figure 4D
  distance traveled, first 5 min: locomotor activity returned to baseline
[2]; methylone 5–30 mg/kg, 30 min after dosing, 30 min test, Figure 5A
  time spent in the center: significantly increased time spent in the center
[2]; methylone 15–30 mg/kg IP, 30 min before, Figure 4C
  distance traveled, first 5 min: significantly increased distance traveled
[2]; methylone 15–30 mg/kg IP, Figure 4F
  distance traveled over 30-min session, 5-min bins: increased distance traveled for the duration of the testing session
[3]
  depletion of brain serotonin: do not deplete brain serotonin
